Results as given in patent US20240051946A1, “TARGETED PROTEIN DEGRADATION OF PARP14 FOR USE IN THERAPY” (Ribon Therapeutics, Inc., priority 2022, published 2024).
Structures can show the parent of a compound that is named as a salt.

target: T1, PARP14 (Homo sapiens, UniProt Q460N5); assay: HiBiT assay for the degradation of PARP14 (HiBiT tagged PARP14 in LgBiT expressing Jurkat cells); type: cell-based; details: Assay B, 37° C. for 2 or 24 hours, luminescence
T1 construct: engineered to contain a HiBiT tag on both alleles of the PARP14 gene; endogenous in cells; host or cells: Jurkat cells stably expressing LgBiT (Promega), with CRISPR/Cas9 knock-in of HiBiT at the PARP14 locus
Experimental: Jurkat cells stably transfected with LgBiT (Promega) were engineered to contain a HiBiT tag on both alleles of the PARP14 gene (Genbank Accession Number: NM_017554) via CRISPR/Cas9 editing. The HiBiT tag is an 11 amino acid tag created by Promega that associates with LgBiT protein to form the NanoLuc® tag on the C-terminus of PARP14. Clones were isolated and confirmed for the HiBiT tag via Sanger sequencing.
Degradation of PARP14 protein was assessed by measuring the luminescence of the HiBiT tag associating with the LgBiT protein as a proxy for the PARP14 protein. Jurkat cells were diluted to 250,000 cells per mL and then added to assay plate (Corning 3574) using a Multidrop (Thermo Fisher) to add 20 μL per well of the 384 well plate, resulting in 5,000 cells per well. 20 nL of a dose response curve diluted in DMSO of each test compound was added to the cell plate using a Mosquito (TTP Labtech) and the plate was incubated at 37° C. for 2 or 24 hours. Assay plate was brought to room temperature then 5 μL per well of Live Cell Substrate (Promega) was added to the plate. Luminescence was measured on an Envision (Perkin Elmer).
The average DMSO was calculated from 32 wells containing 0.1% DMSO only in columns 12 and 24 of the assay plate. The % of DMSO values were calculated as described below: […]
The % of DMSO values were plotted as a function of compound concentration and the following 4-parameter fit was applied to derive the DC50 values:
where top, bottom, and Hill Coefficient are allowed to float. Y is the % of DMSO and X is the compound concentration.
DC50 data for the Example compounds is provided below in Table 2 (“+” is <0.03 μM; “++” is ≥0.03 μM).

T1 sequence (Q460N5 whole entry): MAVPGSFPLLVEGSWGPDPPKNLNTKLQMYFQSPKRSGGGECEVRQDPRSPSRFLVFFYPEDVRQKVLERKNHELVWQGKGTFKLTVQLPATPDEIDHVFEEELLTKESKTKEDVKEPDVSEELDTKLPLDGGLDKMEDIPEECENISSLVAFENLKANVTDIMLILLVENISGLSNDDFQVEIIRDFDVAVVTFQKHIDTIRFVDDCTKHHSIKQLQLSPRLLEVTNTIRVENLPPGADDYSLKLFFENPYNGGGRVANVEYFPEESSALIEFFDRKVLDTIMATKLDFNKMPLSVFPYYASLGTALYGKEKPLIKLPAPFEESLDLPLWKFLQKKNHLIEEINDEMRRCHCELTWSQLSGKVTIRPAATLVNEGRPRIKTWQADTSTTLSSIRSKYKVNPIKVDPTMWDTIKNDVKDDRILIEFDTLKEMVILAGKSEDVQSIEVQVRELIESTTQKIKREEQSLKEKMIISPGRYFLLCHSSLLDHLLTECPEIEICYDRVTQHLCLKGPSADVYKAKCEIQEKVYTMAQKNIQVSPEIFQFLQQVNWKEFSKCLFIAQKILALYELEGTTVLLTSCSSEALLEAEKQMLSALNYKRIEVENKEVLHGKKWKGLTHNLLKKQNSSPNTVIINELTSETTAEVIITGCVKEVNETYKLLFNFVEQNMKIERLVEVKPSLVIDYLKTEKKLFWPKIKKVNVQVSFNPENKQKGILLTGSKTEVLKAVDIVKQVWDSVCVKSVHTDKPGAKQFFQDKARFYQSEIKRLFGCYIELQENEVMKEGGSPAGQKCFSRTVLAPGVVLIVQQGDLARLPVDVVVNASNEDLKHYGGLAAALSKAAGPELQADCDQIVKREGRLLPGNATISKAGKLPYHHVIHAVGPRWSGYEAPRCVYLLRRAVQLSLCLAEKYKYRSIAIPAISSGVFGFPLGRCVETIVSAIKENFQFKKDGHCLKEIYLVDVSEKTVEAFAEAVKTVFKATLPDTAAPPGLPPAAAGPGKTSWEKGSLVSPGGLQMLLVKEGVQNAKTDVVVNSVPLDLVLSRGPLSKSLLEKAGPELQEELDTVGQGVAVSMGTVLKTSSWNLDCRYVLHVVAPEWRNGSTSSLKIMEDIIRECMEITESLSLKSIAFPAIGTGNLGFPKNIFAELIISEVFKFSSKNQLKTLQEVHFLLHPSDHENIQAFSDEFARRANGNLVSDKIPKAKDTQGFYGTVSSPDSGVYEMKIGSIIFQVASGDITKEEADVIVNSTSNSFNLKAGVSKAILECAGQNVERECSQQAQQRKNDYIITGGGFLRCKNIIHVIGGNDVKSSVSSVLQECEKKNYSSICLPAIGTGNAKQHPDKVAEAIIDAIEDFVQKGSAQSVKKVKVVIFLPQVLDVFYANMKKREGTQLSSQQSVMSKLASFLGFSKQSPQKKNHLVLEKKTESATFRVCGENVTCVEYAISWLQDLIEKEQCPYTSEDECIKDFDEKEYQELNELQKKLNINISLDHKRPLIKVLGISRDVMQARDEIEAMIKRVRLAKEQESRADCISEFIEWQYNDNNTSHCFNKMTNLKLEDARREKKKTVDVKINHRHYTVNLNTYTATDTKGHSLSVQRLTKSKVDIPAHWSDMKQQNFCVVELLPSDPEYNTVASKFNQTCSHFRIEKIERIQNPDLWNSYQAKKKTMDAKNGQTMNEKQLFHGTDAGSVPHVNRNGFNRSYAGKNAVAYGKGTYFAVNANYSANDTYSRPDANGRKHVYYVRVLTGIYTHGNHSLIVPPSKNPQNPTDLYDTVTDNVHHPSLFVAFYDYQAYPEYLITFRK

SMILES | DC50 [µM]
O=C1CCC(Nc2ccc(N3CCN(CCN4CCC(SCc5nc6cc(OCC7CC7)cc(F)c6c(=O)[nH]5)CC4)CC3)cc2)C(=O)N1 (centres unmarked) [Example 42, 3-((4-(4-(2-(4-(((7-(cyclopropylmethoxy)-5-fluoro-4-oxo-3,4-dihydroquinazolin-2-yl)methyl)thio)piperidin-1-yl)ethyl)piperazin-1-yl)phenyl)amino)piperidine-2,6-dione] | < 0.03

same assay, conditions: Assay B, 37° C. for 2 or 24 hours, luminescence, read-out: DC50

SMILES | DC50 [µM]
O=C1CCC(Nc2cc(F)c(N3CCC(N4CCC(SCc5nc6cc(OCC7CC7)cc(F)c6c(=O)[nH]5)CC4)CC3)cc2F)C(=O)N1 (centres unmarked) [Example 58, 3-((4-(4-(((7-(cyclopropylmethoxy)-5-fluoro-4-oxo-3,4-dihydroquinazolin-2-yl)methyl)thio)-[1,4′-bipiperidin]-1′-yl)-2,5-difluorophenyl)amino)piperidine-2,6-dione] | < 0.03
Cn1nc(N2CCC(=O)NC2=O)c2ccc(N3CCC(N4CCC(SCc5nc6cc(OCC7CC7)cc(F)c6c(=O)[nH]5)CC4)CC3)cc21 [Example 61, 1-(6-(4-(((7-(cyclopropylmethoxy)-5-fluoro-4-oxo-3,4-dihydroquinazolin-2-yl)methyl)thio)-[1,4′-bipiperidin]-1′-yl)-1-methyl-1H-indazol-3-yl)dihydropyrimidine-2,4(1H,3H)-dione] | < 0.03
O=C1CCC(Nc2ccc(N3CC(N4CCC(SCc5nc6cc(OCC7CC7)cc(F)c6c(=O)[nH]5)CC4)C3)c(F)c2)C(=O)N1 (centres unmarked) [Example 66, 3-((4-(3-(4-(((7-(cyclopropylmethoxy)-5-fluoro-4-oxo-3,4-dihydroquinazolin-2-yl)methyl)thio)piperidin-1-yl)azetidin-1-yl)-3-fluorophenyl)amino)piperidine-2,6-dione] | < 0.03
O=C1CCC(Nc2ccc(N3CCC(N4CCN(CCc5nc6cc(OCC7CC7)cc(F)c6c(=O)[nH]5)CC4)CC3)c(F)c2)C(=O)N1 (centres unmarked) [Example 63, 3-((4-(4-(4-(2-(7-(cyclopropylmethoxy)-5-fluoro-4-oxo-3,4-dihydroquinazolin-2-yl)ethyl)piperazin-1-yl)piperidin-1-yl)-3-fluorophenyl)amino)piperidine-2,6-dione formic salt] | < 0.03
O=C1CCC(Nc2ccc(N3CCC(N4CCC(CCc5nc6cc(OCC7CC7)cc(F)c6c(=O)[nH]5)CC4)CC3)c(F)c2)C(=O)N1 (centres unmarked) [Example 65, 3-((4-(4-(2-(7-(cyclopropylmethoxy)-5-fluoro-4-oxo-3,4-dihydroquinazolin-2-yl)ethyl)-[1,4′-bipiperidin]-1′-yl)-3-fluorophenyl)amino)piperidine-2,6-dione] | < 0.03
O=C1CCC(Nc2ccc(N3CCN(CCN4CCC(SCc5nc6cc(OCC7CC7)cc(F)c6c(=O)[nH]5)CC4)CC3)c(F)c2)C(=O)N1 (centres unmarked) [Example 47, 3-((4-(4-(2-(4-(((7-(cyclopropylmethoxy)-5-fluoro-4-oxo-3,4-dihydroquinazolin-2-yl)methyl)thio)piperidin-1-yl)ethyl)piperazin-1-yl)-3-fluorophenyl)amino)piperidine-2,6-dione] | < 0.03
O=C1CCC(N2Cc3cc(N4CCC(CN5CCC(SCc6nc7cc(OCC8CC8)cc(F)c7c(=O)[nH]6)CC5)CC4)ccc3C2=O)C(=O)N1 (centres unmarked) [Example 50, 3-(5-(4-((4-(((7-(cyclopropylmethoxy)-5-fluoro-4-oxo-3,4-dihydroquinazolin-2-yl)methyl)thio)piperidin-1-yl)methyl)piperidin-1-yl)-1-oxoisoindolin-2-yl)piperidine-2,6-dione] | < 0.03
O=C1CCC(Nc2ccc(N3CCC(N4CCC(SCc5nc6cc(OCC7CC7)cc(F)c6c(=O)[nH]5)CC4)CC3)c(F)c2)C(=O)N1 (centres unmarked) [Example 54, 3-((4-(4-(((7-(cyclopropylmethoxy)-5-fluoro-4-oxo-3,4-dihydroquinazolin-2-yl)methyl)thio)-[1,4′-bipiperidin]-1′-yl)-3-fluorophenyl)amino)piperidine-2,6-dione formate] | < 0.03
O=C1CCC(Nc2ccc(N3CCC(C4CCN(CCc5nc6cc(OCC7CC7)cc(F)c6c(=O)[nH]5)CC4)CC3)c(F)c2)C(=O)N1 (centres unmarked) [Example 64, 3-((4-(1′-(2-(7-(cyclopropylmethoxy)-5-fluoro-4-oxo-3,4-dihydroquinazolin-2-yl)ethyl)-[4,4′-bipiperidin]-1-yl)-3-fluorophenyl)amino)piperidine-2,6-dione] | < 0.03
O=C1CCC(Nc2ccc(N3CCC(CN4CCC(SCc5nc6cc(OCC7CC7)cc(F)c6c(=O)[nH]5)CC4)CC3)c(F)c2)C(=O)N1 (centres unmarked) [Example 56, 3-((4-(4-((4-(((7-(cyclopropylmethoxy)-5-fluoro-4-oxo-3,4-dihydroquinazolin-2-yl)methyl)thio)piperidin-1-yl)methyl)piperidin-1-yl)-3-fluorophenyl)amino)piperidine-2,6-dione formate] | < 0.03
O=C1CCC(Nc2ccc(N3CCN(CCN4CCC(OCc5nc6cc(OCC7CC7)cc(F)c6c(=O)[nH]5)CC4)CC3)c(F)c2)C(=O)N1 (centres unmarked) [Example 45, 3-((4-(4-(2-(4-((7-(cyclopropylmethoxy)-5-fluoro-4-oxo-3,4-dihydroquinazolin-2-yl)methoxy)piperidin-1-yl)ethyl)piperazin-1-yl)-3-fluorophenyl)amino)piperidine-2,6-dione] | < 0.03
O=C1CCC(Nc2ccc(N3CCC(N4CC(N5CCC(SCc6nc7cc(OCC8CCOCC8)cc(F)c7c(=O)[nH]6)CC5)C4)CC3)c(F)c2)C(=O)N1 (centres unmarked) [Example 51, 3-((3-fluoro-4-(4-(3-(4-(((5-fluoro-4-oxo-7-((tetrahydro-2H-pyran-4-yl)methoxy)-3,4-dihydroquinazolin-2-yl)methyl)thio)piperidin-1-yl)azetidin-1-yl)piperidin-1-yl)phenyl)amino)piperidine-2,6-dione formate] | < 0.03
O=C1CCC(Nc2ccc(N3CCN(CCO[C@H]4CC[C@H](SCc5nc6cc(OCC7CC7)cc(F)c6c(=O)[nH]5)CC4)CC3)c(F)c2)C(=O)N1 (some centres unmarked) [Example 55, 3-((4-(4-(2-(((1r,4r)-4-(((7-(cyclopropylmethoxy)-5-fluoro-4-oxo-3,4-dihydroquinazolin-2-yl)methyl)thio)cyclohexyl)oxy)ethyl)piperazin-1-yl)-3-fluorophenyl)amino)piperidine-2,6-dione] | < 0.03
O=C1CCC(Nc2ccc(N3CCC(N4CC(N5CCC(SCc6nc7cc(OCC8CC8)cc(F)c7c(=O)[nH]6)CC5)C4)CC3)c(F)c2)C(=O)N1 (centres unmarked) [Example 48, 3-((4-(4-(3-(4-(((7-(cyclopropylmethoxy)-5-fluoro-4-oxo-3,4-dihydroquinazolin-2-yl)methyl)thio)piperidin-1-yl)azetidin-1-yl)piperidin-1-yl)-3-fluorophenyl)amino)piperidine-2,6-dione] | < 0.03
O=C1CCN(c2cncc3c(N4CCC(N5CCC(SCc6nc7cc(OCC8CC8)cc(F)c7c(=O)[nH]6)CC5)CC4)cccc23)C(=O)N1 [Example 62, 1-(8-(4-(((7-(cyclopropylmethoxy)-5-fluoro-4-oxo-3,4-dihydroquinazolin-2-yl)methyl)thio)-[1,4′-bipiperidin]-1′-yl)isoquinolin-4-yl)dihydropyrimidine-2,4(1H,3H)-dione] | < 0.03
O=C1CCN(c2ccc(N3CCC(N4CCC(SCc5nc6cc(OCC7CC7)cc(F)c6c(=O)[nH]5)CC4)CC3)c(F)c2)C(=O)N1 [Example 60, 1-(4-(4-(((7-(cyclopropylmethoxy)-5-fluoro-4-oxo-3,4-dihydroquinazolin-2-yl)methyl)thio)-[1,4′-bipiperidin]-1′-yl)-3-fluorophenyl)dihydropyrimidine-2,4(1H,3H)-dione] | < 0.03
